According to PubChem BioAssay AID212 (DTP/NCI, 2004):
Several values for one entry are separate records, joined by “and”; a condition that tells them apart may be missing. Equal entries are not always repeated. Results filed as inconclusive are left out.

Test system: BDF1 mice, colon carcinoma 38 sc, T/C %
Experiment: NCI In Vivo Anticancer Drug Screen. Data for tumor model Colon Carcinoma 38 (subcutaneous) in B6D2F1 (BDF1) mice
Details: endpoint: median tumor weight (est.), higher = larger tumour
Procedure: The antitumor activity of compounds was measured in mice bearing transplantable tumors. Survival or tumor size were measured and the results are expressed as the measurement made in the treated group (T) divided by the measurement made in the vehicle treated control group (C). The tumor model used in this assay is Colon Carcinoma 38 (subcutaneous) in B6D2F1 (BDF1) mice

[1] = dose: 25.0 mg/kg/injection, schedule: Q07DX002 (ip), vehicle: saline
[2] = dose: 50.0 mg/kg/injection, schedule: Q07DX002 (ip), vehicle: saline
[3] = dose: 25.0 mg/kg/injection, schedule: Q07DX002 (ip), vehicle: Klucel (hydroxypropylcellulose) (HPC)
[4] = dose: 50.0 mg/kg/injection, schedule: Q07DX002 (ip), vehicle: Klucel (hydroxypropylcellulose) (HPC)
[5] = dose: 100.0 mg/kg/injection, schedule: Q07DX002 (ip), vehicle: Klucel (hydroxypropylcellulose) (HPC)
[6] = dose: 200.0 mg/kg/injection, schedule: Q07DX002 (ip), vehicle: Klucel (hydroxypropylcellulose) (HPC)
[7] = dose: 800.0 mg/kg/injection, schedule: Q07DX002 (ip), vehicle: Klucel (hydroxypropylcellulose) (HPC)
[8] = dose: 50.0 mg/kg/injection, schedule: Q07DX002 (ip), vehicle: saline with Tween-80
[9] = dose: 400.0 mg/kg/injection, schedule: Q07DX002 (ip), vehicle: saline with Tween-80
[10] = dose: 25.0 mg/kg/injection, schedule: Q07DX002 (ip), vehicle: saline with Tween-80

`CC(C)[C@](O)(C(=O)OCC1=CC[N+]2([O-])CC[C@@H](O)[C@@H]12)[C@H](C)O` (stereo partly drawn) was tested, and the T/C (dose: 50.0 mg/kg/injection, schedule: Q07DX003 (ip), vehicle: water) was 66 % of control, the T/C (dose: 100.0 mg/kg/injection, schedule: Q07DX003 (ip), vehicle: water) was 185 % of control and the T/C (dose: 200.0 mg/kg/injection, schedule: Q07DX002 (ip), vehicle: water) was 73 % of control. The T/C (dose: 200.0 mg/kg/injection, schedule: Q07DX003 (ip), vehicle: water) was 123 % of control, the T/C (dose: 400.0 mg/kg/injection, schedule: Q07DX002 (ip), vehicle: water) was 92 % of control and the T/C (dose: 400.0 mg/kg/injection, schedule: Q07DX003 (ip), vehicle: water) was 71 % of control. The T/C (dose: 800.0 mg/kg/injection, schedule: Q07DX002 (ip), vehicle: water) was 64 % of control, the T/C (dose: 800.0 mg/kg/injection, schedule: Q07DX003 (ip), vehicle: water) was 68 % of control and the T/C (dose: 1600.0 mg/kg/injection, schedule: Q07DX002 (ip), vehicle: water) was 48 % of control.

For `COC1=NCN=C2SC=C(N)N=C12`, the T/C (dose: 6.25 mg/kg/injection, schedule: Q07DX002 (ip), vehicle: saline) was 102 % of control, the T/C (dose: 12.5 mg/kg/injection, schedule: Q07DX002 (ip), vehicle: saline) was 91 % of control and the T/C (dose: 12.5 mg/kg/injection, schedule: Q07DX003 (ip), vehicle: saline) was 104 % of control. The T/C [1] was 101 % of control, the T/C [2] was 85 % of control and the T/C (dose: 50.0 mg/kg/injection, schedule: Q07DX003 (ip), vehicle: saline) was 151 % of control. For the same compound, the T/C (dose: 100.0 mg/kg/injection, schedule: Q07DX003 (ip), vehicle: saline) was 154 % of control.

With `Cc1ccc(C2NC(=S)N3C(c4ccc(C)cc4)NC(=S)N23)cc1` (stereo not drawn) the T/C [3] was 94 % of control, the T/C [4] was 79 % of control and the T/C [5] was 83 % of control. For the same compound, the T/C [6] was 88 % of control, the T/C (dose: 400.0 mg/kg/injection, schedule: Q07DX002 (ip), vehicle: Klucel (hydroxypropylcellulose) (HPC)) was 89 % of control and the T/C [7] was 60 % of control.

In the case of `CCOC(=O)C(N)CSC(=O)NC` (stereo not drawn), the T/C (dose: 125.0 mg/kg/injection, schedule: Q07DX002 (ip), vehicle: saline) is reported as 83 % of control, the T/C (dose: 250.0 mg/kg/injection, schedule: Q07DX002 (ip), vehicle: saline) is reported as 110 % of control and the T/C (dose: 500.0 mg/kg/injection, schedule: Q07DX002 (ip), vehicle: saline) is reported as 81 % of control.

In the case of `N/C=N/O`, the T/C [1] is reported as 124 % of control, the T/C [2] is reported as 70 % of control and the T/C (dose: 100.0 mg/kg/injection, schedule: Q07DX002 (ip), vehicle: saline) is reported as 97 % of control. The T/C (dose: 200.0 mg/kg/injection, schedule: Q07DX002 (ip), vehicle: saline) was 92 % of control and the T/C (dose: 400.0 mg/kg/injection, schedule: Q07DX002 (ip), vehicle: saline) was 56 % of control.

For `Oc1ccc(SCc2ccc(NCc3ccccc3)cc2)cc1`, the T/C (dose: 12.5 mg/kg/injection, schedule: Q07DX002 (ip), vehicle: DMSO) was 75 % of control, the T/C (dose: 25.0 mg/kg/injection, schedule: Q07DX002 (ip), vehicle: DMSO) was 82 % of control and the T/C (dose: 50.0 mg/kg/injection, schedule: Q07DX002 (ip), vehicle: DMSO) was 85 % of control. The T/C (dose: 100.0 mg/kg/injection, schedule: Q07DX002 (ip), vehicle: DMSO) was 109 % of control and the T/C (dose: 200.0 mg/kg/injection, schedule: Q07DX002 (ip), vehicle: DMSO) was 82 % of control.

`O=C1C(=O)c2ccccc2C(O)=C1CC=C(Cl)Cl` was tested, and the T/C (dose: 25.0 mg/kg/injection, schedule: Q07DX002 (ip), vehicle: other) was 81 % of control, the T/C (dose: 50.0 mg/kg/injection, schedule: Q07DX002 (ip), vehicle: other) was 90 % of control and the T/C (dose: 100.0 mg/kg/injection, schedule: Q07DX002 (ip), vehicle: other) was 124 % of control. For the same compound, the T/C (dose: 200.0 mg/kg/injection, schedule: Q07DX002 (ip), vehicle: other) was 190 % of control.

For `C[Si](C)(C)OSc1ccccc1[N+](=O)[O-]`, the T/C [3] was 118 % of control, the T/C [4] was 113 % of control and the T/C [5] was 110 % of control. The T/C [7] was 86 % of control.

With `CC1CC(C)CC(C)C(O)/C(C#N)=C/C=C/CC(C2CCCC2C(=O)O)OC(=O)CC(O)C(C)C1` (stereo not drawn) the T/C (dose: 0.13 mg/kg/injection, schedule: Q07DX003 (ip), vehicle: Klucel (hydroxypropylcellulose) (HPC)) was 84 % of control, the T/C (dose: 0.25 mg/kg/injection, schedule: Q07DX003 (ip), vehicle: Klucel (hydroxypropylcellulose) (HPC)) was 80 % of control and the T/C (dose: 0.5 mg/kg/injection, schedule: Q07DX003 (ip), vehicle: Klucel (hydroxypropylcellulose) (HPC)) was 113 % of control. The T/C (dose: 1.0 mg/kg/injection, schedule: Q07DX002 (ip), vehicle: Klucel (hydroxypropylcellulose) (HPC)) was 92 % of control, the T/C (dose: 1.0 mg/kg/injection, schedule: Q07DX003 (ip), vehicle: Klucel (hydroxypropylcellulose) (HPC)) was 93 % of control and the T/C (dose: 2.0 mg/kg/injection, schedule: Q07DX003 (ip), vehicle: Klucel (hydroxypropylcellulose) (HPC)) was 69 % of control. The T/C (dose: 4.0 mg/kg/injection, schedule: Q07DX002 (ip), vehicle: Klucel (hydroxypropylcellulose) (HPC)) was 106 % of control, the T/C (dose: 4.0 mg/kg/injection, schedule: Q07DX003 (ip), vehicle: Klucel (hydroxypropylcellulose) (HPC)) was 88 % of control and the T/C (dose: 8.0 mg/kg/injection, schedule: Q07DX002 (ip), vehicle: Klucel (hydroxypropylcellulose) (HPC)) was 75 % of control.

`C[Si](C)(CCl)N[Si](C)(C)CCl` was tested, and the T/C [8] was 99 % of control, the T/C (dose: 100.0 mg/kg/injection, schedule: Q07DX002 (ip), vehicle: saline with Tween-80) was 100 % of control and the T/C [9] was 150 % of control.

For `CC[C@](C)(O)C(=O)O[C@H]1C(=O)O[C@@H]2C[C@H]3C(C)=CC(=O)[C@@H](O)[C@]3(C)[C@H]3[C@@]4(O)OC[C@]32[C@@H]1[C@@H](C)[C@H]4O`, the T/C (dose: 0.13 mg/kg/injection, schedule: Q07DX002 (ip), vehicle: saline with Tween-80) was 91 % of control, the T/C (dose: 0.25 mg/kg/injection, schedule: Q07DX002 (ip), vehicle: saline with Tween-80) was 90 % of control and the T/C (dose: 0.5 mg/kg/injection, schedule: Q07DX002 (ip), vehicle: saline with Tween-80) was 60 % of control. For the same compound, the T/C (dose: 1.0 mg/kg/injection, schedule: Q07DX002 (ip), vehicle: saline with Tween-80) was 62 % of control and the T/C (dose: 2.0 mg/kg/injection, schedule: Q07DX002 (ip), vehicle: saline with Tween-80) was 47 % of control.

With `C=C(C)C(=NC(C)(C)C)Nc1ccccc1` the T/C (dose: 12.5 mg/kg/injection, schedule: Q07DX002 (ip), vehicle: saline with Tween-80) was 100 % of control, the T/C [10] was 101 % of control and the T/C [8] was 103 % of control. The T/C (dose: 200.0 mg/kg/injection, schedule: Q07DX002 (ip), vehicle: saline with Tween-80) was 108 % of control and the T/C [9] was 100 % of control.

With `O=C(Nc1ccc(Cl)c(Cl)c1)Nc1c(Oc2ccc(Cl)c(Cl)c2)ccc(Cl)c1S(=O)(=O)O` the T/C (dose: 6.25 mg/kg/injection, schedule: Q07DX002 (ip), vehicle: Klucel (hydroxypropylcellulose) (HPC)) was 167 % of control, the T/C (dose: 12.5 mg/kg/injection, schedule: Q07DX002 (ip), vehicle: Klucel (hydroxypropylcellulose) (HPC)) was 103 % of control and the T/C [5] was 119 % of control. For the same compound, the T/C [6] was 66 % of control.

`CCC1CCCCN1C(=S)N/N=C(\C)c1ccccn1` (stereo not drawn) was tested, and the T/C [10] was 121 % of control.

With `[Cl][Pt+2][Cl].[NH-]CC1(C[NH-])CCC1` the T/C (dose: 12.5 mg/kg/injection, schedule: Q07DX002 (ip), vehicle: suspension in saline) was 50 % of control.

In the case of `OC(C1CO1)C(O)C1CO1` (stereo not drawn), the T/C (dose: 1.0 mg/kg/injection, schedule: Q07DX002 (ip), vehicle: saline) is reported as 83 % of control, the T/C (dose: 1.0 mg/kg/injection, schedule: Q07DX003 (ip), vehicle: saline) is reported as 71 % of control and 81 % of control and the T/C (dose: 2.0 mg/kg/injection, schedule: Q07DX002 (ip), vehicle: saline) is reported as 114 % of control. The T/C (dose: 2.0 mg/kg/injection, schedule: Q07DX003 (ip), vehicle: saline) was 70 % of control and 86 % of control, the T/C (dose: 4.0 mg/kg/injection, schedule: Q07DX003 (ip), vehicle: saline) was 5 % of control and 30 % of control and the T/C (dose: 8.0 mg/kg/injection, schedule: Q07DX002 (ip), vehicle: saline) was 58 % of control. The T/C (dose: 8.0 mg/kg/injection, schedule: Q07DX003 (ip), vehicle: saline) was 8 % of control and 20 % of control.
